Test results taken from PubChem BioAssay (NCI).
Several values for one entry are separate records, joined by “and”; a condition that tells them apart may be missing. Identical values can stand only once.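 Following 48 hours of exposure in 96-well plates, responses at five concentrations were used to interpolate endpoints linearly. GI50 is the concentration that inhibits growth by half. Definition used: TGI = concentration required for complete inhibition of growth.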 Where a SMILES comes first, the peptide text is derived from it. The star is where a group is joined. Cbz = O=C(OCc1ccccc1)*; Boc = CC(C)(C)OC(=O)*; OSu = O=C1CCC(=O)N1O*; Bn = c1ccc(C*)cc1

Experiments:
Assay in all cases: growth of human tumour cells (NCI), 48 h
NCI-H23 lung = tested on: NCI-H23 lung
TK-10 renal = tested on: TK-10 renal
UACC-257 melanoma = tested on: UACC-257 melanoma
LOX IMVI melanoma = tested on: LOX IMVI melanoma
MALME-3M melanoma = tested on: MALME-3M melanoma
NCI/ADR-RES ovarian = tested on: NCI/ADR-RES ovarian
HOP-92 NSCLC = tested on: HOP-92 NSCLC
SN12C renal = tested on: SN12C renal
IGROV1 ovarian = tested on: IGROV1 ovarian
BT-549 breast = tested on: BT-549 breast

| SMILES | TGI (NCI-H23 lung) [µM] | TGI (TK-10 renal) [µM] | TGI (UACC-257 melanoma) | TGI (LOX IMVI melanoma) [µM] | TGI (MALME-3M melanoma) | TGI (NCI/ADR-RES ovarian) | TGI (HOP-92 NSCLC) [µM] | TGI (SN12C renal) | TGI (IGROV1 ovarian) | TGI (BT-549 breast) [µM] | GI50 (NCI-H23 lung) | GI50 (TK-10 renal) | GI50 (NCI/ADR-RES ovarian) | GI50 (SN12C renal) | GI50 (IGROV1 ovarian) |
| --- | --- | --- | --- | --- | --- | --- | --- | --- | --- | --- | --- | --- | --- | --- | --- |
| COc1ccc2c(c1)CC[C@@H]1C2CC[C@]2(C)C(=C=CP(=O)(O)O)CCC12 (stereo partly specified) | > 100 | > 100 | > 100 µM | > 100 | > 100 µM | > 100 µM | > 100 | > 100 µM | > 100 µM | – | – | – | – | – | – |
| O=S(=O)(O)c1cc(O)c(N=Nc2ccc3ccccc3c2O)c2ccccc12 | 30.8 | > 100 | 66.7 µM | – | 9.66 µM | 46.7 µM | > 100 | > 100 µM | 32.3 µM | > 100 | – | – | – | – | – |
| O=C(O)C1(C(O)c2ccccc2)SCCCS1 (stereo unspecified) | > 10 | > 10 | > 10 µM | > 10 | > 10 µM | – | > 10 | > 10 µM | > 10 µM | > 10 | – | – | – | – | – |
| CSc1nc(C)c2c(n1)N(c1ccc(Cl)cc1)CC2 | > 100 | > 100 | > 100 µM | > 100 | > 100 µM | > 100 µM | > 100 | > 100 µM | > 100 µM | – | – | – | – | – | – |
| CCc1cc2c(c3c1CCCC3=O)CC1(C2)Cc2cc(CC)c3c(c2C1)C(=O)CCC3 | > 100 | > 100 | > 100 µM | > 100 | > 100 µM | > 100 µM | > 100 | > 100 µM | > 100 µM | – | – | – | – | – | – |
| CC(C)=CC(=O)c1c(C(=O)O)nc2ccccc2[n+]1[O-] | > 100 | > 100 | > 100 µM | > 100 | – | – | > 100 | > 100 µM | > 100 µM | – | – | – | – | – | – |
| CN(/N=C\c1ccc2ccccc2c1)C1=NCCCN1 | > 100 | 34.2 | 23.6 µM | 21.6 | 26.4 µM | 74.4 µM | 14.5 | – | 23.3 µM | – | – | – | – | – | – |
| CC[C@@]1(O)C(=O)OCc2c1cc1n(c2=O)Cc2c-1nc1ccccc1c2C=Nc1ccccc1N[C@@H]1c2cc3c(cc2[C@@H](c2cc(OC)c(O)c(OC)c2)[C@H]2C(=O)OC[C@@H]21)OCO3 | – | – | 66.7 µM and 11.3 µM | – | 25.6 µM and 3.78 µM | 2.88 µM and 2.78 µM | > 100 | > 100 µM and 24.6 µM | 12.4 µM and 7.63 µM | > 50 | 0.0356 µM and 0.0156 µM | 3.49 µM and 0.549 µM | 0.0689 µM and 0.24 µM | 0.0632 µM and 0.0234 µM | 0.544 µM and 0.22 µM |
| O=c1c2cc(I)ccc2nc(-c2cccs2)n1O | > 100 | 79.4 | > 100 µM | 80.4 | – | > 100 µM | 79.6 | > 100 µM | > 100 µM | > 100 | – | – | – | – | – |
| Cc1ncc(CSC(=N)N)n1Cc1ccccc1 | > 100 | > 100 | > 100 µM | – | > 100 µM | > 100 µM | > 100 | > 100 µM | > 100 µM | > 100 | – | – | – | – | – |
| N#Cc1c(N)nc(Sc2ccccc2N)c(C#N)c1-c1ccccc1 | 63.7 | 34.2 | > 100 µM | 41.3 | 46.2 µM | 42.5 µM | 64.3 | – | > 100 µM | 95.9 | – | – | – | – | – |
| CN(C)C(=O)Oc1ccc(C(=S)Nc2ccccc2)cc1 | > 100 | – | > 100 µM | > 100 | > 100 µM | 91.8 µM | – | – | > 100 µM | 79.7 | – | – | – | – | – |
| CCOC(=O)c1cc2c3c(cc(OC)c2[nH]1)N(C(=O)OCC)CC3 | > 100 | – | > 100 µM | > 100 | > 100 µM | > 100 µM | > 100 | > 100 µM | > 100 µM | > 100 | – | – | – | – | – |
| CC1CCCN1CCCOC(=O)c1ccc(OC2C=CCCC2)cc1 (stereo unspecified) | 63.3 | 88.8 | > 100 µM | 36.7 | 34.4 µM | > 100 µM | – | > 100 µM | 58.4 µM | > 100 | – | – | – | – | – |
| COc1ccc(/C=N/NC(=S)Nc2cc(C)ccc2OC)cc1 | 73.8 | – | – | > 100 | 65.2 µM | > 100 µM | 72 | 68.6 µM | > 100 µM | 88.8 | – | – | – | – | – |
| CC(C)(C)OC(=O)NC(Cc1ccc(OCc2ccccc2)cc1)C(=O)NC(CCCCNC(=O)OCc1ccccc1)C(=O)NC(CCCCNC(=O)OCc1ccccc1)C(=O)ON1C(=O)CCC1=O (stereo unspecified) (Boc-Tyr(Bn)-Lys(Cbz)-Lys(Cbz)-OSu; configuration not given here) | > 100 | > 100 | > 100 µM | – | > 100 µM | > 100 µM | > 100 | – | > 100 µM | 33.2 | – | – | – | – | – |
| Cc1nc(Cc2n[nH]c(C)n2)n[nH]1 | > 100 | > 100 | > 100 µM | > 100 | – | > 100 µM | > 100 | > 100 µM | > 100 µM | > 100 | – | – | – | – | – |
| CC(=O)N1c2cc(N=NN(C)C)ccc2NC(=O)CC1C (stereo unspecified) | > 100 | > 100 | > 100 µM | – | > 100 µM | > 100 µM | – | > 100 µM | > 100 µM | > 100 | – | – | – | – | – |
| O=C1/C(=C/c2ccc(Cl)cc2)Oc2ccccc21 | 73.1 | 64.3 | > 100 µM | – | – | – | – | > 100 µM | – | > 100 | – | – | – | – | – |
| Cc1ccccc1Nc1nc2ccccc2nc1NS(=O)(=O)c1ccccc1 | > 100 | > 100 | > 100 µM | > 100 | > 100 µM | > 100 µM | > 100 | > 100 µM | > 100 µM | – | – | – | – | – | – |
| c1cc2c(cc1[C@@H]1OC[C@@H]3[C@H]1CO[C@H]3c1ccc3c(c1)OCO3)OCO2 | > 100 | 93.8 | 80.7 µM | > 100 | > 100 µM | > 100 µM | > 100 | > 100 µM | > 100 µM | – | – | – | – | – | – |
| Cc1ccc(NC(=O)C(=O)Cc2cccc[n+]2[O-])cc1C | > 100 | > 100 | > 100 µM | > 100 | > 100 µM | – | – | > 100 µM | > 100 µM | – | – | – | – | – | – |
| CCCCCCCc1ccc(-c2nnc(N=Nc3ccc(OCCCCC)cc3)s2)s1 | > 100 | > 100 | > 100 µM | – | > 100 µM | > 100 µM | – | > 100 µM | > 100 µM | > 100 | – | – | – | – | – |
| COc1ccc(C23OCC(Cc4cc(OC)c(OC)cc42)C3CO)cc1OC (stereo unspecified) | > 100 | > 100 | – | > 100 | > 100 µM | > 100 µM | – | – | – | > 100 | – | – | – | – | – |
